EC50 data for 45 compounds are collected here from PubChem BioAssay AID1196 (NMMLSC, 2008).

The source made the active and inactive calls. No rule for the calls is given here.

The experiment has as its system prostate cell differentiation activation, dose response. Description: prostate cell differentiation inducers, concentration series – secondary assay, dose response (AID 1196).
`Cc1ccccc1-c1nc(CN2CCCC(C(=O)NCCCN3CCOCC3)C2)c(C)o1` (stereo not given): the EC50 was 11.7 µM (inactive). As for `Cc1ccc(C)c(N2CCN(CCCNC(=O)Cn3cc4c(n3)CCCCC4)CC2)c1`, the figure is 2.68 µM; as for `Cn1c(C(=O)NCCCN2CCN(c3cccc(Cl)c3)CC2)cc2c(=O)n(C)c3ccccc3c21`, 11.1 µM (inactive).

As to `CCN(CC)CCNC(=O)c1ccc(N2CCCCC2)c(NS(=O)(=O)c2ccc(C)cc2)c1`, the EC50 was 5.88 µM. Take `COc1ccc(Nc2nc(N)nc(CN3CCC(Cc4ccccc4)CC3)n2)cc1`: the EC50 is 2.89 µM. In the case of `CC1CCCCN1CCNC(=O)c1ccc2c(=O)n(CCc3ccccc3)c(=O)[nH]c2c1` (stereo not given) it was 16.2 µM (inactive); in that of `CCN1CCN(c2cc(C)c3cc(NC(=O)c4ccc(Br)o4)ccc3n2)CC1`, 3.37 µM. As for `CCOc1ccc(NC(=O)COc2nsnc2N2CCCCC2)cc1`, the figure is 0.277 µM; as for `CCN1CCCC1CNC(=O)C1CCN(Cc2nc(-c3cccc(Br)c3)oc2C)CC1` (stereo not given), 1.16 µM. In the case of `COc1ccccc1NC(=O)c1nc[nH]c1C(=O)Nc1ccccc1OC` it was 2.67 µM; in that of `COc1cc2nc(N3CCN(C(=O)C4COc5ccccc5O4)CC3)nc(N)c2cc1OC` (stereo not given), 8.34 µM; in that of `Cc1ccccc1-c1nc(CN2CCC(C(=O)NCc3cccnc3)CC2)c(C)o1`, 12.5 µM (inactive). As to `CCn1c(=O)cc(SCC(=O)NCCCN2CCN(c3ccccc3F)CC2)c2ccccc21`, the EC50 is 9.05 µM.

As for `Cc1ccccc1CS(=O)(=O)CCC(=O)NCCCN1CCN(c2ccccc2F)CC1`, the EC50 is 7.46 µM. As for `Cn1nc(-c2ccc(Cl)cc2)c2cc(C(=O)NCCCN3CCOCC3)sc21`, the figure is 5.34 µM; as for `CCN(CC)CCNC(=O)c1cc2c(-c3ccc(Cl)cc3)nn(C)c2s1`, 2.48 µM; as for `COc1ccc(-c2ccc(-c3noc(-c4ccccc4)n3)c(OC)n2)cc1`, 8.46 µM. As for `Cc1ccc2c(c1)-c1c(cnn1CC(=O)Nc1ccccc1N1CCN(C)CC1)CO2`, the figure is 6.04 µM; as for `Cn1c(=O)cc(OCC(=O)NCCCN2CCN(c3ccccc3F)CC2)c2ccccc21`, 27.8 µM (inactive). In the case of `CN(C)c1ccc(CNC2CC(C)(C)NC(C)(C)C2)cc1` it was 5.53 µM; in that of `CCOC(=O)c1ccccc1NC(=O)Cn1c(-c2nonc2N)nc2ccccc21`, 0.218 µM; in that of `O=C(NCCCN1CCN(c2cccc(Cl)c2)CC1)c1cccc(N2CCCC2=O)c1`, 17.1 µM (inactive). As to `Cc1ccccc1-c1nc(CN2CCC(C(=O)NCCCN3CC(C)CC(C)C3)CC2)c(C)o1` (stereo not given), the EC50 was 1.27 µM.

For `CCN(CC)CCCNC(=O)c1cc2c(-c3ccc(Cl)cc3)nn(C)c2s1`, the EC50 was 2.85 µM. Regarding `Cc1oc(-c2ccc(Cl)cc2)nc1CN1CCC(C(=O)NCCCN2CCOCC2)CC1`, the EC50 is 3.44 µM.

Regarding `COc1ccc2cc3cc(C(=O)Nc4ccccc4N4CCN(C)CC4)oc3nc2c1`, the EC50 is 3.87 µM. In the case of `Cc1cc(N2CCN(C)CC2)nc2ccc(NC(=O)c3ccc(Br)o3)cc12` it was 2.21 µM; in that of `Cn1c(=O)cc(SCC(=O)NCCCN2CCN(c3ccccc3F)CC2)c2ccccc21`, 9.37 µM; in that of `COc1ccc(-c2noc(-c3cc(Cl)ccc3Cl)n2)cc1OC`, 10.3 µM (inactive). Take `Cc1ccc(OCC(O)Cn2c(=N)n(CCN3CCCCC3)c3ccccc32)cc1` (stereo not given): the EC50 was 1.47 µM.

Turning to `CCN1CCN(c2ncc(C(=O)Nc3cc(Cl)c(OC)cc3OC)c3ccccc23)CC1`, the EC50 was 5.27 µM. In the case of `CCCN(CCC)CCNC(=O)C1CCN(Cc2nc(-c3ccc(Cl)cc3)oc2C)CC1` it was 6.5 µM. As for `Cc1ccc(Nc2cc(=O)n(C3CCCCC3)c(=O)[nH]2)cc1C`, the figure is 0.0873 µM. In the case of `Cc1oc(-c2ccc(Cl)cc2)nc1CN1CCC(C(=O)N2CCN(Cc3ccccc3)CC2)CC1` it was 1.81 µM. Take `N=c1n(CCN2CCCCC2)c2ccccc2n1CC(O)COc1ccccc1` (stereo not given): the EC50 is 2.21 µM. In the case of `CCOc1cccc2cc(-c3cn4cc(C)ccc4n3)c(=O)oc12` it was 3.03 µM.

For the compound `Cc1ccccc1-c1nc(CN2CCC(C(=O)NCCCN3CCOCC3)CC2)c(C)o1`, the EC50 was 5.47 µM. Regarding `CN(C)CCCN1c2ccccc2CCc2ccc(Cl)cc21`, the concentration for a half-maximal effect (EC50) was 1.46 µM.

Turning to `CCN1CCN(CCNC(=O)C2CCN(Cc3nc(-c4ccc(Cl)cc4)oc3C)CC2)CC1`, the EC50 was 6.46 µM. In the case of `CCOc1ccccc1NC(=O)c1nc[nH]c1C(=O)Nc1ccccc1OCC` it was 8.92 µM.

For the compound `CCN1CCCC1CNC(=O)c1cc2c(-c3ccc(Cl)cc3)nn(C)c2s1` (stereo not given), the EC50 is 1.51 µM.

For the compound `CCn1c(=O)cc(SCC(=O)NCCN2CCN(Cc3ccccc3)CC2)c2ccccc21`, the EC50 was 20.4 µM (inactive). As for `CCN1CCN(C(c2cccs2)C(C)NS(=O)(=O)c2ccc(Br)cc2)CC1` (stereo not given), the figure is 16.8 µM (inactive). As to `COc1ccc(CCn2c(=N)c(C(=O)NCc3ccco3)cc3c(=O)n4ccccc4nc32)cc1`, the EC50 is 29.2 µM (inactive). For `CCCOc1ccccc1C1CC(=O)Nc2cc3c(cc21)OCO3` (stereo not given), the EC50 was 0.239 µM.
